Consider 17 compounds from patent publication US10023570B2 (Array BioPharma, Inc., priority 2015, dated 2018).

The structures appear in SMILES notation. Like-named read-outs stand apart in the source and are kept apart here.

Test [1] deals with N-terminal GST tagged recombinant human RET cytoplasmic domain (aa 658-end), wild type RET kinase (Homo sapiens (Human), UniProt P07949). Put plainly: RET Enzyme Assay (HTRF KinEASE-TK), wild type RET. As to conditions: wild type RET, 1 mM ATP. It counts as biochemical. A general note: Time-resolved FRET reads energy transfer from a long-lived donor to a nearby acceptor.
Chain of N-terminal GST tagged recombinant human RET cytoplasmic domain (aa 658-end), wild type RET kinase (P07949 658-1114): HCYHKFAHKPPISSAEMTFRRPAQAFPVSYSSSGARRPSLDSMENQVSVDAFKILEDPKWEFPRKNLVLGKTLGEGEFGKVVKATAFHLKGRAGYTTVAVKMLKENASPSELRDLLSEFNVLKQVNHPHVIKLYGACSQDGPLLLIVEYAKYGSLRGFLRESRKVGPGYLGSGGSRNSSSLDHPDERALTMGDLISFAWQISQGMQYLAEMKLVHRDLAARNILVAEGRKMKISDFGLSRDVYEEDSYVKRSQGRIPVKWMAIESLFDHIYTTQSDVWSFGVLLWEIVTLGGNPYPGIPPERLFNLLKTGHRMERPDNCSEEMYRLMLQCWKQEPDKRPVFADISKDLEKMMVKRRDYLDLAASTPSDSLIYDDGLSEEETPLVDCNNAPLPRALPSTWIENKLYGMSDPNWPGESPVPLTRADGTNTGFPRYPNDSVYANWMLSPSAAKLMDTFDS
In test [2] the target is human KDR protein in HEK-293 cells (Homo sapiens (Human), UniProt P35968). Put plainly: KDR Cell Assay (phospho-KDR in HEK-293 cells expressing inducible KDR). Format: cell-based. As to conditions: pKDR Cell HEK 10% FBS IC50, HEK-293 cells expressing inducible KDR, VEGF stimulated. Summed up: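 HEK-293 cells with inducible human KDR were treated with compound for 1 h in DMEM (0.25% DMSO final), then lysed. Phospho-KDR was quantified by Meso Scale immunoassay, expressed as percent of control, and IC50 taken where a 4-parameter logistic fit crossed 50 POC.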
Chain of human KDR protein in HEK-293 cells (P35968 20-1356): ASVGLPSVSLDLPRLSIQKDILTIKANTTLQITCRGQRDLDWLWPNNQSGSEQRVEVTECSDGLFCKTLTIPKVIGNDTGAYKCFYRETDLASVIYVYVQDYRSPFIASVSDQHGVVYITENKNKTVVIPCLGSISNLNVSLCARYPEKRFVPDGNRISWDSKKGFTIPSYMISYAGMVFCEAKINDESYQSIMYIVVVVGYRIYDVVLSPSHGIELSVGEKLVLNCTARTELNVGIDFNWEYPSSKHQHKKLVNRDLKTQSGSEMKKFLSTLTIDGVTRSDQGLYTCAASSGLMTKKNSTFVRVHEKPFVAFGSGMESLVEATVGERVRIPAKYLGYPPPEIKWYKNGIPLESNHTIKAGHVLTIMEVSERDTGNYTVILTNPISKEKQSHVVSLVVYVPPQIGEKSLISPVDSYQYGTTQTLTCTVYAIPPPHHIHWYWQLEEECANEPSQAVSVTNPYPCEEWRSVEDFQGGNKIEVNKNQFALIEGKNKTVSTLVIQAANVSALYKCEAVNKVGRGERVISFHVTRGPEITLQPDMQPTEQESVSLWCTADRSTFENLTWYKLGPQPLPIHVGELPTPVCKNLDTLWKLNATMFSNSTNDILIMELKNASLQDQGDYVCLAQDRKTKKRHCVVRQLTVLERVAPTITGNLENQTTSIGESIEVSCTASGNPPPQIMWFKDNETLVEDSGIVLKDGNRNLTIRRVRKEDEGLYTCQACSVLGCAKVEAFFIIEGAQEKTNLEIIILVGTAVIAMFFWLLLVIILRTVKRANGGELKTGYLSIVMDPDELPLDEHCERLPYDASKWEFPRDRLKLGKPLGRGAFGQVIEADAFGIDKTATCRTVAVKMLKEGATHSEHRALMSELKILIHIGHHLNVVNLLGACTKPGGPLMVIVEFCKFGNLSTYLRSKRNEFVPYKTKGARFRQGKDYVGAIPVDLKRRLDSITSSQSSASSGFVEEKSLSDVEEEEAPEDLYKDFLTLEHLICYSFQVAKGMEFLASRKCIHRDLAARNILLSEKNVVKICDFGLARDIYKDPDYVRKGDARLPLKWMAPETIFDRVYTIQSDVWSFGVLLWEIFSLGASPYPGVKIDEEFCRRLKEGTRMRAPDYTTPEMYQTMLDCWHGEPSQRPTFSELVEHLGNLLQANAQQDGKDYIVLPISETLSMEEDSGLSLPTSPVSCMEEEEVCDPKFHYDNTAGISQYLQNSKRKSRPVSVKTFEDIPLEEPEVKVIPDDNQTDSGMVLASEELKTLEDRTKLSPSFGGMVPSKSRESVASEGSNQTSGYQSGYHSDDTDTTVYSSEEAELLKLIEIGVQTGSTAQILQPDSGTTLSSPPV

The target in test [3] is Kif5b-RET fusion protein in HEK-293 cells (Homo sapiens, UniProt P07949). The test can be described thus: cell-based.
Chain of Kif5b-RET fusion protein in HEK-293 cells (P07949 29-1114 limits assumed): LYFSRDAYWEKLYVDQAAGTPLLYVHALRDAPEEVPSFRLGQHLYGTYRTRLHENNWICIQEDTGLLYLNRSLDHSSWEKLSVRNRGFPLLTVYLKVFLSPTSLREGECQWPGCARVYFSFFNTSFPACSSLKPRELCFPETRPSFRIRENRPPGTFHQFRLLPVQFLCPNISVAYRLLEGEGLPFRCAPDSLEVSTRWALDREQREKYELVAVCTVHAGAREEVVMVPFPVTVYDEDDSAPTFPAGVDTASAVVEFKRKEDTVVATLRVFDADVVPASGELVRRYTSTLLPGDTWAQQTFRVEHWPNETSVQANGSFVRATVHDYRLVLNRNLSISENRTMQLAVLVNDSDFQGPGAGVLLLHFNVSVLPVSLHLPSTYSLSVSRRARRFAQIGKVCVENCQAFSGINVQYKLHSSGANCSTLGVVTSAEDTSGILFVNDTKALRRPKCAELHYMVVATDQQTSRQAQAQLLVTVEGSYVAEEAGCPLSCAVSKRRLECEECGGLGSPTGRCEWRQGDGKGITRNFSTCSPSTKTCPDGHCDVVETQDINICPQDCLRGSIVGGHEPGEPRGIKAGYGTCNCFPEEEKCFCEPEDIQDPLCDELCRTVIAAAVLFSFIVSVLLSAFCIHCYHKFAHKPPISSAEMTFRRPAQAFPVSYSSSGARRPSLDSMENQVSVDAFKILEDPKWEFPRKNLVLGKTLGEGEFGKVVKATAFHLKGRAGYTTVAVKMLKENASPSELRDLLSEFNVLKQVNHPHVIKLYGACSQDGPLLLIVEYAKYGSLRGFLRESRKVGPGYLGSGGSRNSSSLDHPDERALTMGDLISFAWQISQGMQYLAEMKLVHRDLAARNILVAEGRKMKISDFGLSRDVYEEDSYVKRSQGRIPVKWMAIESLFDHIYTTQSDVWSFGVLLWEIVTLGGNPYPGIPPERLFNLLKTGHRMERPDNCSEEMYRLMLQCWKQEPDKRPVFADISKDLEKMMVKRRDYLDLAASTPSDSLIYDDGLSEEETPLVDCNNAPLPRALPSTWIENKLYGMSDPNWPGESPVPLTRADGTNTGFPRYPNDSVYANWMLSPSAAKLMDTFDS
Where [4] appears, read: HEK-293 cells expressing Kif5b-RET, phospho-RET(Tyr1062), read-out: KIF5B-RET pTYR1062 Cell IC50.
Setting [5] is: HEK-293 cells expressing Kif5b-RET, read-out: KIF5B-RET pTYR1062 Cell IC50.

One may read the IC50 as the concentration that inhibits the measured activity by half. As to `C[C@H](O)C(=O)N1CCN(c2ccc(-c3cc(-c4cnn(C)c4)cn4ncc(C#N)c34)cn2)CC1` [Example 30, (S)-4-(6-(4-(2-hydroxypropanoyl)piperazin-1-yl)pyridin-3-yl)-6-(1-methyl-1H-pyrazol-4-yl)pyrazolo[1,5-a]pyridine-3-carbonitrile], the IC50 in test [1] stood at 22.1 nM; in test [2] (10% FBS) it was 921 nM; in test [3] (setting [4]), 124 nM.
As for `C[C@@H](NC(=O)C1(C)CCN(c2ccc(-c3cc(-c4cnn(C)c4)cn4ncc(C#N)c34)cn2)CC1)C(F)(F)F` [Example 253, (R)-1-(5-(3-cyano-6-(1-methyl-1H-pyrazol-4-yl)pyrazolo[1,5-a]pyridin-4-yl)pyridin-2-yl)-4-methyl-N-(1,1,1-trifluoropropan-2-yl)piperidine-4-carboxamide], the IC50 stood at 16.1 nM in test [1], 596 nM in test [2] (10% FBS) and 8.4 nM in test [3] (setting [4]).
Take `CCN(CC)C(=O)N1CCN(c2ccc(-c3cc(-c4cnn(C)c4)cn4ncc(C#N)c34)cn2)CC1` [Example 98, 4-(5-(3-cyano-6-(1-methyl-1H-pyrazol-4-yl)pyrazolo[1,5-a]pyridin-4-yl)pyridin-2-yl)-N,N-diethylpiperazine-1-carboxamide]: the IC50 turned out to be 3.6 nM in test [1], 1600 nM in test [2] (10% FBS) and 13 nM in test [3] (setting [4]).
Turning to `CC(C)C(O)CN1CCN(c2ccc(-c3cc(-c4cnn(C)c4)cn4ncc(C#N)c34)cn2)CC1` (stereo not drawn) [Example 160, 4-(6-(4-(2-hydroxy-3-methylbutyl)piperazin-1-yl)pyridin-3-yl)-6-(1-methyl-1H-pyrazol-4-yl)pyrazolo[1,5-a]pyridine-3-carbonitrile], the half-inhibitory concentration (IC50) in test [1] stood at 13.6 nM; in test [2] (10% FBS) it was 192 nM; in test [3] (setting [4]), 11 nM.
The matching figures for `COC1CCN(c2ccc(-c3cc(-c4cnn(C)c4)cn4ncc(C#N)c34)cn2)CC1` [Example 198, 4-(6-(4-methoxypiperidin-1-yl)pyridin-3-yl)-6-(1-methyl-1H-pyrazol-4-yl)pyrazolo[1,5-a]pyridine-3-carbonitrile]: 14.3 nM, 659 nM and 25.3 nM.
The matching figures for `CC(C)C[C@@H](O)C(=O)N1CCN(c2ccc(-c3cc(-c4cnn(C)c4)cn4ncc(C#N)c34)cn2)CC1` [Example 53, (R)-4-(6-(4-(2-hydroxy-4-methylpentanoyl)piperazin-1-yl)pyridin-3-yl)-6-(1-methyl-1H-pyrazol-4-yl)pyrazolo[1,5-a]pyridine-3-carbonitrile]: 4.4 nM, 305 nM and 9.9 nM.
The matching figures for `CC(=O)N1CCN(c2ccc(-c3cc(-c4cnn(C)c4)cn4ncc(Cl)c34)cn2)CC1` [Example 330, 1-(4-(5-(3-chloro-6-(1-methyl-1H-pyrazol-4-yl)pyrazolo[1,5-a]pyridin-4-yl)pyridin-2-yl)piperazin-1-yl)ethanone]: 38.3 nM, 566 nM and 84 nM.
As for `CN1CCN(c2ccc(-c3cc(-c4cnn(C)c4)cn4ncc(Cl)c34)cn2)CC1` [Example 333, 3-chloro-6-(1-methyl-1H-pyrazol-4-yl)-4-(6-(4-methylpiperazin-1-yl)pyridin-3-yl)pyrazolo[1,5-a]pyridine], the IC50 in test [1] worked out at 63.7 nM; in test [2] (10% FBS), 2390 nM; in test [3] (setting [4]), 156 nM.
In the case of `C[C@H](CO)Cn1cc(-c2cc(-c3ccc(N4CCN(Cc5ccccc5)CC4)nc3)c3c(C#N)cnn3c2)cn1` [Example 593, (S)-4-(6-(4-benzylpiperazin-1-yl)pyridine-3-yl)-6-(1-(3-hydroxy-2-methylpropyl)-1H-pyrazol-4-yl)pyrazolo[1,5-a]pyridine-3-carbonitrile], the concentration for half-maximal inhibition (IC50) in test [1] was determined as 13.3 nM; in test [2], 154 nM; in test [3] (setting [5]), 12.4 nM.
As to `CC(C)[C@H](O)C(=O)N1CCN(c2ccc(-c3cc(-c4cnn(C)c4)cn4ncc(C#N)c34)cn2)CC1` [Example 54, (S)-4-(6-(4-(2-hydroxy-3-methylbutanoyl)piperazin-1-yl)pyridin-3-yl)-6-(1-methyl-1H-pyrazol-4-yl)pyrazolo[1,5-a]pyridine-3-carbonitrile], the IC50 in test [1] stood at 12.4 nM; in test [2] (10% FBS) it was 1480 nM; in test [3] (setting [4]) it was 66.6 nM.
For `Cn1cc(-c2cc(-c3ccc(N4CCC(C(=O)NOC(C)(C)C)CC4)nc3)c3c(C#N)cnn3c2)cn1` [Example 565, N-(tert-butoxy)-1-(5-(3-cyano-6-(1-methyl-1H-pyrazol-4-yl)pyrazolo[1,5-a]pyridin-4-yl)pyridin-2-yl)piperidine-4-carboxamide], the figures for the IC50 in test [1], in test [2] and in test [3] (setting [5]) were 6.4 nM, 540 nM and 10.3 nM, respectively.
`CCN(C)C(=O)N1CCN(c2ccc(-c3cc(-c4cnn(C)c4)cn4ncc(C#N)c34)cn2)CC1` [Example 136, 4-(5-(3-cyano-6-(1-methyl-1H-pyrazol-4-yl)pyrazolo[1,5-a]pyridin-4-yl)pyridin-2-yl)-N-ethyl-N-methylpiperazine-1-carboxamide]: the 50% inhibitory concentration (IC50) was 9.1 nM in test [1], 1580 nM in test [2] (10% FBS) and 11.9 nM in test [3] (setting [4]).
As for `COCC(=O)N1CCN(c2ccc(-c3cc(-c4cnn(C)c4)cn4ncc(C#N)c34)cn2)CC1` [Example 40, 4-(6-(4-(2-methoxyacetyl)piperazin-1-yl)pyridin-3-yl)-6-(1-methyl-1H-pyrazol-4-yl)pyrazolo[1,5-a]pyridine-3-carbonitrile 2,2,2-trifluoroacetate], the IC50 in test [1] stood at 13.7 nM; in test [2] (10% FBS) it was 221 nM; in test [3] (read-out: KIF5B-RET pTYR1062 Cell IC50), 11.2 nM.
With `CC(C)N(CCO)C(=O)C1CCN(c2ccc(-c3cc(-c4cnn(C)c4)cn4ncc(C#N)c34)cn2)CC1` [Example 561, 1-(5-(3-cyano-6-(1-methyl-1H-pyrazol-4-yl)pyrazolo[1,5-a]pyridin-4-yl)pyridin-2-yl)-N-(2-hydroxyethyl)-N-isopropylpiperidine-4-carboxamide 2,2,2-trifluoroacetate], the IC50 in test [1] stood at 23.8 nM; in test [2], 1730 nM; in test [3], 37.5 nM.
`Cn1cc(-c2cc(-c3ccc(N4CCC(O)CC4)nc3)c3c(C#N)cnn3c2)cn1` [Example 196, 4-(6-(4-hydroxypiperidin-1-yl)pyridin-3-yl)-6-(1-methyl-1H-pyrazol-4-yl)pyrazolo[1,5-a]pyridine-3-carbonitrile]: the IC50 is 10.9 nM in test [1], 630 nM in test [2] (10% FBS) and 45.5 nM in test [3] (setting [4]).
For `Cn1cc(-c2cc(-c3ccc(N4CCC(NC(=O)OC(C)(C)C)CC4)nc3)c3c(C#N)cnn3c2)cn1` [Example 176, tert-butyl (1-(5-(3-cyano-6-(1-methyl-1H-pyrazol-4-yl)pyrazolo[1,5-a]pyridin-4-yl)pyridin-2-yl)piperidin-4-yl)carbamate], the 50% inhibitory concentration (IC50) stood at 7.6 nM in test [1], 928 nM in test [2] (10% FBS) and 15.3 nM in test [3] (setting [4]).
In the same order, the values of `CCC1(C(=O)NCC(C)(C)O)CCN(c2ccc(-c3cc(-c4cnn(C)c4)cn4ncc(C#N)c34)cn2)CC1` [Example 258, 1-(5-(3-cyano-6-(1-methyl-1H-pyrazol-4-yl)pyrazolo[1,5-a]pyridin-4-yl)pyridin-2-yl)-4-ethyl-N-(2-hydroxy-2-methylpropyl) piperidine-4-carboxamide] are 12.5 nM, 505 nM and 10 nM.
